Reference: patent publication US5663295A, “Opioid peptides” (Biomeasure Inc., priority 1994, dated 1997)

Assays:
μ receptor = experiment: In vitro receptor binding, μ receptor, radioligand DAGO; design: species or system guinea-pig or rat; conditions: forebrain membranes, 25° C., 60 min
Method: (§1) The following procedure was used to determine the ability of various opioid peptides to inhibit binding at opioid receptors. Crude membranes were prepared by homogenization of guinea-pig or rat forebrain samples in 20 ml of ice-cold 50 mM Tris-HCl with a Brinkman Polytron (setting 6, 15 sec.). Buffer was added to obtain a final volume of 40 ml, and the homogenate centrifuged in a Sorval SS-34 rotor at 39,000 g for 10 min. at 0°-4° C. The resulting supernatant was decanted and discarded. The pellet was rehomogenized in ice-cold buffer, pre-incubated at 37° C. for 45 min., diluted, and centrifuged as before. The final pellet was resuspended in 50 mM Tris HCl and held on ice for the receptor binding assay.
(§2) Aliquots of the washed membrane preparation (described above) were incubated in 50 mM Tris HCl at a total volume of 2.0 ml at 25° C. with an opioid receptor ligand (see below) and various concentrations of the unlabeled test compounds. Mu and kappa receptor assays were incubated for 60 minutes. […] At the end of the incubation periods, the assays were terminated by rapid filtration though Whatman GF/B glass fiber filters, and the bound radioactivity trapped on the filters counted by liquid scintillation spectrometry. For each of the three receptor subtypes, specific binding was calculated as the total radioligand bound minus that bound in the presence of 1000 nM levallorphan. […]

δ receptor = experiment: In vitro receptor binding, δ receptor, radioligand DPPE; design: species or system guinea-pig or rat; conditions: forebrain membranes, 25° C., 40 min
Method: as §1, §2

κ receptor = experiment: In vitro receptor binding, κ receptor, radioligand U69,593; design: species or system guinea-pig or rat; conditions: forebrain membranes, 25° C., 60 min
Method: as §1, §2

Human NSLC A549 = experiment: Subcutaneous tumor assay, human non-small cell lung cancer A549 xenografts; assay type: in vivo, athymic nude mice
Method: Table 5 compares the antitumor activity of an opioid BIM-38009 versus methadone. A subcutaneous tumor assay was used in which xenografts of the human non-small cell lung cancer were implanted s.c. in athymic nude mice. Test compounds were administered s.c. or i.p., twice daily, from day 4 post tumor implantation to day 35. The results are reported as means±s.e.m. on 8 animals per group. For structure of BIM-38009, see above.

Compound	Ki (μ receptor)	Ki (δ receptor)	Ki (κ receptor)	Tumor Weight (mg) (Day 34) (Human NSLC A549; A549 xenograft s.c., treatment days 4-35, mean ± s.e.m., 8 animals per group)	& T/C (Human NSLC A549; A549 xenograft, tumor weight Day 34, treated versus control)
C[C@@H](NC(=O)[C@@H](N)Cc1ccc(O)cc1)C(=O)NCC(=O)N[C@@H](CCc1ccccc1)C(N)=O [BIM-38046, tyrosyl-D-alanyl-glycyl-homophenylalanine amide]	0.00292 ± 0.00112 µM	0.0727 µM	0.849 µM	–	–
CCC(=O)C(CC(C)N(C)C)(c1ccccc1)c1ccccc1 (centres unmarked) [Methadone]	–	–	–	337 ± 57 mg	110
